Measurements: patent US20170348280A1 (priority 2016, published 2017)
Where two headings read alike, the source gives them in different places.

How the values were obtained:
[1] = test system: collagen type I ECM deposition by cultured human skin fibroblasts; assay: Collagen type I ECM deposition by cultured human skin fibroblasts (immunoassay); assay type: cell-based; details: channel blocker alone, without ascorbate; 72 h; FIG. 1A-1F
Protocol: (§1) Both cell cultures were maintained in DMEM medium (ATCC) containing antibiotics and 5% fetal bovine serum (FBS, ATCC). All cell cultures were maintained at 37° C. and 5% CO2 atmosphere. Cell viability was monitored with MTT assay.
(§2) Collagen production by human cultured cells: In the case of these experiments, DF or AoSMC, at 5th to 8th passages, were seeded on collagen type I-covered plastic plates (Becton-Dickinson, collagen I isolated from rat tail tendon) at density of 25,000/cm^2 and grown to confluence for 5-7 days. […] Tested compounds were added to cells at indicated concentrations for 72 h in DMEM supplemented with 2% FBS and cell-produced extracellular matrix was exposed by sequential treatment with 0.5% Triton X100 and 20 mM ammonium […] in phosphate buffered saline (PBS, Life Technologies) for 3 min each at room temperature. After four washes with PBS, ECM layers were treated with 1% bovine serum albumin (BSA) in PBS for one hour at room temperature and immediately used in experiments.
Collagen and beta-actin immunoassays: Immunoassays were done by sequential incubation with primary monoclonal antibodies specific to human collagen type I or IV or human beta-actin in 1% BSA/PBS for 2 hours followed by 1 hour incubation with secondary goat anti-mouse IgG antibodies labeled with horse radish peroxidase (HRP). […]

[2] = test system: ECM deposition of collagen type I by cultured AoSMC; assay: ECM deposition of collagen type I by cultured AoSMC (immunoassay); details: for reduction of ascorbyl palmitate dependent deposition of collagen type 1 to the ECM / reduction of ascorbic acid dependent deposition of collagen type 1 to the ECM: 50 μM nifedipine
[3] = test system: cultured fibroblasts; assay: Cell viability / cytotoxicity (MTT assay), fibroblasts; assay type: cell-based, human; details: data not shown
Protocol: as §1

[4] = test system: smooth muscle cells; assay: Cell viability / cytotoxicity (MTT assay), smooth muscle cells; assay type: cell-based, human; details: cultured smooth muscle cells; data not shown
Protocol: as §1

[5] = test system: ascorbate accumulation inside human AoSMC; assay: Intracellular ascorbic acid assay in AoSMC; assay type: cell-based
Protocol: Cells were washed briefly three times with ice-cold PBS on ice and incubated with 300 μl of 0.1% saponin in 1% ethanol in PBS for 10 min on an orbit mixer. Samples were collected to Eppendorf tubes and centrifuged at 13,000×g for 5 min. Supernatants were used in an ascorbic acid assay (Ascorbic Acid Colorimetric Assay Kit […], BioVision) in accordance with the manufacturer's protocol. […] Differences between samples were estimated with a two-tailed Student's t-test using MedCalc software ([…], Belgium) and accepted as significant at p levels less than 0.05.

[6] = test system: ECM deposition of collagen type IV by AoSMC; assay: ECM deposition of collagen type IV by AoSMC (immunoassay); assay type: cell-based, human; details: for increased collagen IV deposition: compared to 1.25 μM; for decrease in ascorbyl palmitate dependent ECM deposition of collagen IV / reduction of ascorbic acid dependent deposition of collagen type IV to the ECM: 50 μM nifedipine
Protocol: as §1, §2
(§3) Collagen and beta-actin immunoassays: Immunoassays were done by sequential incubation with primary monoclonal antibodies specific to human collagen type I or IV or human beta-actin in 1% BSA/PBS for 2 hours followed by 1 hour incubation with secondary goat anti-mouse IgG antibodies labeled with horse radish peroxidase (HRP).
(§4) Differences between samples were estimated with a two-tailed Student's t-test using MedCalc software (Mariakerke, Belgium) and accepted as significant at p levels less than 0.05.

[7] = test system: human vascular smooth muscle cells and fibroblasts; details: cited from earlier work
[8] = cited from earlier work
[9] = test system: intracellular content of collagen type I normalized to beta actin content in aortic smooth muscle cells; assay: Intracellular collagen type I normalized by beta actin content in AoSMC; assay type: cell-based, human; details: for reduction of intracellular content of collagen type I normalized to beta actin content compared to the control: 50 μM nifedipine
Protocol: as §2, §3, §4

[10] = test system: intracellular content of beta-Actin in AoSMC; assay: Intracellular content of beta-actin in AoSMC (immunoassay); assay type: cell-based, human; details: for reduction of ascorbate-dependent beta-actin intracellular content compared to control: 50 μM nifedipine; for reduction of intracellular beta actin content: nifedipine
Protocol: as §1, §2, §3, §4

[11] = test system: intracellular content of collagen type I in AoSMC; assay: Intracellular content of collagen type I in AoSMC (immunoassay); assay type: cell-based, human; details: for reduction of ascorbate-dependent intracellular collagen type 1 synthesis: 50 μM nifedipine; for reduction of ascorbate-dependent collagen type 1 synthesis: nifedipine
Protocol: as §1, §2, §3, §4

[12] = 100 μM ascorbic acid compared to 25 μM ascorbic acid
[13] = 400 μM ascorbic acid compared to 25 μM ascorbic acid

COc1cc(CNC(=O)CCCC/C=C/C(C)C)ccc1O [capsaicin]
inhibition of collagen type I deposition to the ECM [1]: slight, insignificant inhibition

C=C[C@H]1C[N@@]2CC[C@H]1C[C@@H]2[C@@H](O)c1ccnc2ccc(OC)cc12 [quinidine]
effects on ascorbic acid dependent collagen type I and type IV deposition in AoSMC ([2]; compared with nifedipine, data not shown): comparable results

CCCCCCCCCCCCCCCC(=O)OC[C@H](O)[C@H]1OC(=O)C(O)=C1O [ascorbyl palmitate]
levels found to be cytotoxic [3]: higher than 20 μM | levels found to be cytotoxic [4]: higher than 20 μM | higher intracellular levels of ascorbic acid compared to the highest concentration of ascorbic acid used (400) ([5]; supplementation with 20 ascorbyl palmitate (unit not given)): 10 × | increased collagen IV deposition ([6]; 2.5 μM ascorbyl palmitate alone): 113% | increased collagen IV deposition ([6]; 5 μM ascorbyl palmitate alone): 144% | increased collagen IV deposition ([6]; 10 μM ascorbyl palmitate alone): 138% | increased collagen IV deposition ([6]; 20 μM ascorbyl palmitate alone): 168% | increase of collagen type 1 ECM deposition ([2]; 2.5 μM ascorbyl palmitate administered individually, compared to 1.25 μM): 135% | increase of collagen type 1 ECM deposition ([2]; 5 μM ascorbyl palmitate administered individually, compared to 1.25 μM): 189% | increase of collagen type 1 ECM deposition ([2]; 10 μM ascorbyl palmitate administered individually, compared to 1.25 μM): 184% | increase of collagen type 1 ECM deposition ([2]; 20 μM ascorbyl palmitate administered individually, compared to 1.25 μM): 212%

COc1ccc([C@@H]2Sc3ccccc3N(CCN(C)C)C(=O)[C@@H]2OC(C)=O)cc1 [ditiazem]
constitutive and platelet-derived growth factor-dependent collagen deposition in the ECM [7]: significantly decreased | inhibition of collagen type I deposition to the ECM [1]: up to 13.1%

COc1ccc(CCN(C)CCCC(C#N)(c2ccc(OC)c(OC)c2)C(C)C)cc1OC (stereo not drawn) [verapamil]
constitutive and platelet-derived growth factor-dependent collagen deposition in the ECM [7]: significantly decreased

O=C1O[C@H]([C@@H](O)CO)C(O)=C1O [ascorbic acid]
excretion half-life ([8]; body stores depleted, by the onset of the first symptoms of scurvy): 83 days | renal resorption threshold (plasma level) ([8]; men): about 1.5 mg/dL | half-life of excretion in the urine ([8]; plasma concentrations larger than renal resorption threshold): about 30 minutes | renal resorption threshold (plasma level) ([8]; women): ~1.3 mg/dL | increased collagen IV ECM deposition [6, 12]: 175% | increased collagen IV ECM deposition [6, 13]: 166% | increase of collagen type 1 ECM deposition [2, 12]: 114% | increase of collagen type 1 ECM deposition [2, 13]: 176%

COC(=O)C1=C(C)NC(C)=C(C(=O)OC)C1c1ccccc1[N+](=O)[O-] [nifedipine]
reduction of intracellular content of collagen type I normalized to beta actin content compared to the control ([9]; 25 μM ascorbic acid): 46% | reduction of intracellular content of collagen type I normalized to beta actin content compared to the control ([9]; 100 μM ascorbic acid): 34.4% | increase of collagen I (normalized to beta actin) compared to control ([9]; nifedipine, 400 μM ascorbic acid): 23% | effect on collagen I content (normalized to beta actin) ([9]; nifedipine, ascorbyl palmitate at 5 μM and 20 μM): no significant effect | reduction of ascorbate-dependent beta-actin intracellular content compared to control ([10]; 25 μM ascorbic acid): 29% | reduction of ascorbate-dependent beta-actin intracellular content compared to control ([10]; 100 μM ascorbic acid): 22.6% | reduction of ascorbate-dependent beta-actin intracellular content compared to control ([10]; 400 μM ascorbic acid): 5% | reduction of intracellular beta actin content ([10]; 5 μM ascorbyl palmitate): 22% | reduction of intracellular beta actin content ([10]; 20 μM ascorbyl palmitate): 23.6% | effect on intracellular ascorbate levels [5]: no significant effect | decrease of intracellular ascorbate ([5]; 50 μM nifedipine, 100 μM ascorbic acid, 90 min): 61.5% | reduction of ascorbate intracellular content ([5]; 50 μM nifedipine, 400 μM ascorbic acid, 90 min): 67.7% | decrease in ascorbyl palmitate dependent ECM deposition of collagen IV ([6]; 1.25 μM ascorbyl palmitate): 23.5% | decrease in ascorbyl palmitate dependent ECM deposition of collagen IV ([6]; 2.5 μM ascorbyl palmitate): 22.7% | decrease in ascorbyl palmitate dependent ECM deposition of collagen IV ([6]; 5 μM ascorbyl palmitate): 22% | decrease in ascorbyl palmitate dependent ECM deposition of collagen IV ([6]; 10 μM ascorbyl palmitate): 13.5% | decrease in ascorbyl palmitate dependent ECM deposition of collagen IV ([6]; 20 μM ascorbyl palmitate): 31.6% | reduction of ascorbic acid dependent deposition of collagen type IV to the ECM ([6]; 25 μM ascorbic acid): 36% | reduction of ascorbic acid dependent deposition of collagen type IV to the ECM ([6]; 100 μM ascorbic acid): 54% | reduction of ascorbic acid dependent deposition of collagen type IV to the ECM ([6]; 400 μM ascorbic acid): 43% | reduction of ascorbyl palmitate dependent deposition of collagen type 1 to the ECM ([2]; 1.25 μM ascorbyl palmitate): 25% | reduction of ascorbyl palmitate dependent deposition of collagen type 1 to the ECM ([2]; 2.5 μM ascorbyl palmitate): 38% | reduction of ascorbyl palmitate dependent deposition of collagen type 1 to the ECM ([2]; 5 μM ascorbyl palmitate): 27.5% | reduction of ascorbyl palmitate dependent deposition of collagen type 1 to the ECM ([2]; 10 μM ascorbyl palmitate): 11% | reduction of ascorbyl palmitate dependent deposition of collagen type 1 to the ECM ([2]; 20 μM ascorbyl palmitate): 26.5% | reduction of ascorbic acid dependent deposition of collagen type 1 to the ECM ([2]; 25 μM ascorbic acid): 62.3% | reduction of ascorbic acid dependent deposition of collagen type 1 to the ECM ([2]; 100 μM ascorbic acid): 41.8% | reduction of ascorbic acid dependent deposition of collagen type 1 to the ECM ([2]; 400 μM ascorbic acid): 16.5% | reduction of ascorbate-dependent intracellular collagen type 1 synthesis ([11]; 25 μM ascorbic acid): 61% | reduction of ascorbate-dependent intracellular collagen type 1 synthesis ([11]; 100 μM ascorbic acid): 49.1% | increase of intracellular collagen I compared to control ([11]; nifedipine with 400 μM ascorbic acid): 122% | reduction of ascorbate-dependent collagen type 1 synthesis ([11]; ascorbyl palmitate at 5 (unit not given)): 20.3% | reduction of ascorbate-dependent collagen type 1 synthesis ([11]; ascorbyl palmitate at 20 (unit not given)): 38%
